Measured values taken from US8802849B2, “Tricyclic benzo[4,5]thieno-[2,3-d]pyrimidine-4-yl-amin derivatives, their salts, process for producing the compounds and their pharmaceutical use” (Vichem Chemie Kutató Kft., priority 2008, dated 2014).

Assays:
[1] = molecular target: Kit (Homo sapiens, UniProt P10721); experiment: Kit kinase assay; format: biochemical; conditions: 10 μM compound; read-out: Kit percent of inhibition
Protocol: (§1) General description of the kinase assays: the kinase activity was assayed in 96-well microtiter plates at a final compound concentration of 10 μM in a total volume of 50 μl. Compounds were dissolved in 100% DMSO to prepare a 10 mM stock solution and than diluted with buffer to reach a 10 μM (or the required) final concentration. The kinase concentration was used to yield 10% ATP turn over. The ATP concentration was used at the KmATP and 12.5 μCi/ml adenosine 5′[γ-33P]triphosphate. The substrate concentration was used at 5 fold excess over the Km for the substrate. The reaction was incubated for 1 hour at room temperature and stopped by addition of 10 μl 50 mM EDTA. The assay was transferred to a 96 well MAPH filter plate (Millipore). The radioactivity was counted on a Microbeta microplate counter.

[2] = molecular target: P70S6K (Homo sapiens, UniProt P23443); experiment: P70S6K kinase assay; format: biochemical; conditions: 10 μM compound; read-out: P70S6K percent of inhibition
Chain of P70S6K (P23443 whole entry): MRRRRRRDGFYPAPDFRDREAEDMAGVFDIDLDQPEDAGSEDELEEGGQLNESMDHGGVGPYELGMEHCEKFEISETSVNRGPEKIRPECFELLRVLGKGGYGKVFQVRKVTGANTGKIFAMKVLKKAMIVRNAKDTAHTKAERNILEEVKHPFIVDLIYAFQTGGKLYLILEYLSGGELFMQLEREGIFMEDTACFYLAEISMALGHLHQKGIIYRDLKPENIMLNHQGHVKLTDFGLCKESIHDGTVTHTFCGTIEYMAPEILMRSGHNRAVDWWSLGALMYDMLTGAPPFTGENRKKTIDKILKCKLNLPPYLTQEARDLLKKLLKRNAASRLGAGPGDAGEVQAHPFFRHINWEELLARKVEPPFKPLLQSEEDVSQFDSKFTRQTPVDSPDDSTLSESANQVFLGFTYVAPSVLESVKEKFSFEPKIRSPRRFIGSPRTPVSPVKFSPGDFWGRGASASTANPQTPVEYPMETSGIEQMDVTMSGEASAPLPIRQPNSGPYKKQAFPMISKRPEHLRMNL
Protocol: as §1

[3] = molecular target: MAPK-ERK1 (Homo sapiens, UniProt P27361); experiment: MAPK-ERK1 kinase assay; format: biochemical; conditions: 10 μM compound; read-out: MAPK-ERK1 percent of inhibition
Chain of MAPK-ERK1 (P27361 whole entry): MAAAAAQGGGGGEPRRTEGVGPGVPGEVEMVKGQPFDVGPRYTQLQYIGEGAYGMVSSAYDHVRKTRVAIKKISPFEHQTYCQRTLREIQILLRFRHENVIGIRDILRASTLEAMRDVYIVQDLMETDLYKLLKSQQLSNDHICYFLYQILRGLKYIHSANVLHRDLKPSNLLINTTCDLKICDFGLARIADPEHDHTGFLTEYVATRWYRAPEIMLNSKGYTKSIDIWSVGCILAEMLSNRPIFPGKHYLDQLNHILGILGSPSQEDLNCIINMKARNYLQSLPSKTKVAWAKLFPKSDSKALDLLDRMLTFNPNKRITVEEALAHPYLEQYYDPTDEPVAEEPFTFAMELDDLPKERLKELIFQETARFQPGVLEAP
Protocol: as §1

[4] = molecular target: RSK1 (Homo sapiens, UniProt Q15418); experiment: RSK1 kinase assay; format: biochemical; conditions: 10 μM compound; read-out: RSK1 percent of inhibition
Chain of RSK1 (Q15418 whole entry, species assumed): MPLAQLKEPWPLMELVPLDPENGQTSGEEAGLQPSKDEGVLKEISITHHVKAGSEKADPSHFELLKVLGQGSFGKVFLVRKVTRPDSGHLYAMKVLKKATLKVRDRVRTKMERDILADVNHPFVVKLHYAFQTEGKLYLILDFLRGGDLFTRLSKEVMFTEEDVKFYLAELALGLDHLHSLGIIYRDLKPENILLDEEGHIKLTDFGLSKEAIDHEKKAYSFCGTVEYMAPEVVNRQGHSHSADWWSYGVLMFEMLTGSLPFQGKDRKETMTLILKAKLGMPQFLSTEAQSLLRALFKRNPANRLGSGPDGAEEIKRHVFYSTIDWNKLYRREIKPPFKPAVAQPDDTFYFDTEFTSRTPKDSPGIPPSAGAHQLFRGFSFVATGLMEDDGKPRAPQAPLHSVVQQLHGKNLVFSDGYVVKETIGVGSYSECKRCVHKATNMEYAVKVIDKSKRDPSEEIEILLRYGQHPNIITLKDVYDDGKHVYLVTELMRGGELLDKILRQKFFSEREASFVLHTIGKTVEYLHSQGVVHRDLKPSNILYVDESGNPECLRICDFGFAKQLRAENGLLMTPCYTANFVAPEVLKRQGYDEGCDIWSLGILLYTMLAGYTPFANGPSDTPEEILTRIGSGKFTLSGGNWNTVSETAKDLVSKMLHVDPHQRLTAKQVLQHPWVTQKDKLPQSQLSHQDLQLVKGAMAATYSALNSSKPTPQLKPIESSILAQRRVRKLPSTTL
Protocol: as §1

[5] = molecular target: P56Lck (Homo sapiens, UniProt P06239); experiment: P56Lck kinase assay; format: biochemical; conditions: 10 μM compound; read-out: P56Lck percent of inhibition
Protocol: as §1

[6] = molecular target: InsR (Homo sapiens, UniProt P06213); experiment: InsR kinase assay; format: biochemical; conditions: 10 μM compound; read-out: InsR percent of inhibition
Chain of InsR (P06213 28-1382, species assumed): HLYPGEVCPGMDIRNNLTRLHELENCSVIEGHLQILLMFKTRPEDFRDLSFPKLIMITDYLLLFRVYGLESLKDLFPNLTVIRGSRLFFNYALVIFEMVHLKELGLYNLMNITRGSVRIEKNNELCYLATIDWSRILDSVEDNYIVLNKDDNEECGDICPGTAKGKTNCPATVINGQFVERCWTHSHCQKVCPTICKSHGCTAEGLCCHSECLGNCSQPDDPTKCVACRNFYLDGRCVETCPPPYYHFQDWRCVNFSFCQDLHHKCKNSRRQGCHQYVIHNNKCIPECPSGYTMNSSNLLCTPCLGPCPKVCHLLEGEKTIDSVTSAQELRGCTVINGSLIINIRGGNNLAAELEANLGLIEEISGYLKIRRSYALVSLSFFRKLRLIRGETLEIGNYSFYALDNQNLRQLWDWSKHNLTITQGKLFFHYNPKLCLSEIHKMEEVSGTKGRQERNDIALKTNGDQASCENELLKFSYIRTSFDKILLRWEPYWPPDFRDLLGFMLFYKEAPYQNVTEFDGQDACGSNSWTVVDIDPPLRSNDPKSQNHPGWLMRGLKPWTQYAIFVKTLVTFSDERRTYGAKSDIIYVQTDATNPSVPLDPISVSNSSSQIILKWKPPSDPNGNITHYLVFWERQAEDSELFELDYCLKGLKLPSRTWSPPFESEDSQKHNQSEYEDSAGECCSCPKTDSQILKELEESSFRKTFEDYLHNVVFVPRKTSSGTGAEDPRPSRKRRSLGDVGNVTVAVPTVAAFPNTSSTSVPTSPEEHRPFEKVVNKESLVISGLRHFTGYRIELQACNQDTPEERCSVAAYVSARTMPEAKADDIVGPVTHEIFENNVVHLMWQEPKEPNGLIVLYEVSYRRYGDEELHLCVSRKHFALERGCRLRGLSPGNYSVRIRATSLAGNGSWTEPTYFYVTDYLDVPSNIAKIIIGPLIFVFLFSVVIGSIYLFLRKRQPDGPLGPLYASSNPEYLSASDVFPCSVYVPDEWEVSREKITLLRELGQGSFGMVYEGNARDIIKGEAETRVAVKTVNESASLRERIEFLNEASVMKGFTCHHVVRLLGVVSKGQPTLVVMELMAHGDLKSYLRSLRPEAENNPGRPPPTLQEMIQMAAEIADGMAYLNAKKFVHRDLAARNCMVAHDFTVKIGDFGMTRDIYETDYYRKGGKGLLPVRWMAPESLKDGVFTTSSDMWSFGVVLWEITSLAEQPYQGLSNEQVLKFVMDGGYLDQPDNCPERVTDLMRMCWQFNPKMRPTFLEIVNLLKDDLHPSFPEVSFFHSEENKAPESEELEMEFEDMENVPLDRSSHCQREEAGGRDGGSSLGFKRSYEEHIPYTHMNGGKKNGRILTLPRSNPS
Protocol: as §1

[7] = molecular target: CDK2/CycA (Homo sapiens, UniProt P24941); experiment: CDK2/CycA kinase assay; format: biochemical; conditions: 10 μM compound; read-out: CDK2/CycA percent of inhibition
Protocol: as §1

[8] = molecular target: PDGFR-beta (Homo sapiens, UniProt P09619); experiment: PDGFR-beta kinase assay; format: biochemical; conditions: 10 μM compound; read-out: PDGFR-beta percent of inhibition
Protocol: as §1

[9] = molecular target: T1, IKK-beta (Homo sapiens, UniProt O14920); experiment: IKK-beta kinase assay; format: biochemical; conditions: 10 μM compound; read-out: IKK-beta percent of inhibition
T1 sequence (O14920 1-756): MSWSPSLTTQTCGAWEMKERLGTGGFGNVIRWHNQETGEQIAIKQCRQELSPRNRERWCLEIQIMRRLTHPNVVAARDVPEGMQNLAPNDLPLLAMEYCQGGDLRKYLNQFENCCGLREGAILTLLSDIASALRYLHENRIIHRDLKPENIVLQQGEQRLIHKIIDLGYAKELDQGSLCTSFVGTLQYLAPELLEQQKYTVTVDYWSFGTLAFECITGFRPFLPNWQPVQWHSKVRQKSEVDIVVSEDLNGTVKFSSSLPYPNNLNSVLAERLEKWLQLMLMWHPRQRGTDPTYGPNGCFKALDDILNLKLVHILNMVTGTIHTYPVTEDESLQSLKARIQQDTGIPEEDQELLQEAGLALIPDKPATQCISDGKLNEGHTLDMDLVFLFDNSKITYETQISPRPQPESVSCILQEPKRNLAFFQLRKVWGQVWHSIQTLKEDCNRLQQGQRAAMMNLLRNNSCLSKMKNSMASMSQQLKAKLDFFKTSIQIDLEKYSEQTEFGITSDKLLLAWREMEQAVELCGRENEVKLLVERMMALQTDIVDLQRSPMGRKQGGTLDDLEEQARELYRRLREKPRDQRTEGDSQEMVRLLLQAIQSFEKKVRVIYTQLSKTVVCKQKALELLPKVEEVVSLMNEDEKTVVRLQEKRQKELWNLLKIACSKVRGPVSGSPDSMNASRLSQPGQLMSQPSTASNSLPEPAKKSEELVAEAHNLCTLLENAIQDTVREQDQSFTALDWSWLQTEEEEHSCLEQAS
Protocol: as §1

[10] = molecular target: SRPK1 (Homo sapiens, UniProt Q96SB4); experiment: SRPK1 kinase assay; format: biochemical; conditions: 10 μM compound; read-out: SRPK1 percent of inhibition
Chain of SRPK1 (Q96SB4 whole entry, species assumed): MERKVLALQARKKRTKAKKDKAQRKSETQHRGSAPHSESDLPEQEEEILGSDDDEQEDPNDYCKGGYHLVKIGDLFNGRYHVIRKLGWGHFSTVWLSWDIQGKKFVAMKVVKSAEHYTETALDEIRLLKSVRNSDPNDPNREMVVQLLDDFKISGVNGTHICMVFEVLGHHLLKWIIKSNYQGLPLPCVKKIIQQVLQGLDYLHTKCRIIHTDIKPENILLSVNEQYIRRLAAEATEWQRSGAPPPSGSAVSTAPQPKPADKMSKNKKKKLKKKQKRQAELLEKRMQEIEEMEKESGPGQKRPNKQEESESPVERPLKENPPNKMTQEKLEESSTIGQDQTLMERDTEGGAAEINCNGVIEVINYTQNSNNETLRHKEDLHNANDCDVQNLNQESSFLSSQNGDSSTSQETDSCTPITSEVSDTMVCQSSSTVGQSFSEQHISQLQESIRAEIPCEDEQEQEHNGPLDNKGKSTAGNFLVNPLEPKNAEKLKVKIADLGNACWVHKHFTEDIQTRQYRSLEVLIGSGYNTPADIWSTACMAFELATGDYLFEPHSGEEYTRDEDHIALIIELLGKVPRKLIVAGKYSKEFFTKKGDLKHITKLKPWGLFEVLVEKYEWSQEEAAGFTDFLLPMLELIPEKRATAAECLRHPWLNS
Protocol: as §1

[11] = molecular target: Jnk1a1 (Homo sapiens, UniProt P45983); experiment: Jnk1a1 kinase assay; format: biochemical; conditions: 10 μM compound; read-out: Jnk1a1 percent of inhibition
Protocol: as §1

[12] = molecular target: c-Raf (Homo sapiens, UniProt P04049); experiment: c-Raf kinase assay; format: biochemical; conditions: 10 μM compound; read-out: c-Raf percent of inhibition
Protocol: as §1

[13] = molecular target: cMet (Homo sapiens, UniProt P08581); experiment: cMet kinase assay; format: biochemical; conditions: 10 μM compound; read-out: cMet percent of inhibition
Protocol: as §1

[14] = molecular target: GSK-3beta (Homo sapiens, UniProt P49841); experiment: GSK-3beta kinase assay; format: biochemical; conditions: 10 μM compound; read-out: GSK-3beta percent of inhibition
Chain of GSK-3beta (P49841 whole entry, species assumed): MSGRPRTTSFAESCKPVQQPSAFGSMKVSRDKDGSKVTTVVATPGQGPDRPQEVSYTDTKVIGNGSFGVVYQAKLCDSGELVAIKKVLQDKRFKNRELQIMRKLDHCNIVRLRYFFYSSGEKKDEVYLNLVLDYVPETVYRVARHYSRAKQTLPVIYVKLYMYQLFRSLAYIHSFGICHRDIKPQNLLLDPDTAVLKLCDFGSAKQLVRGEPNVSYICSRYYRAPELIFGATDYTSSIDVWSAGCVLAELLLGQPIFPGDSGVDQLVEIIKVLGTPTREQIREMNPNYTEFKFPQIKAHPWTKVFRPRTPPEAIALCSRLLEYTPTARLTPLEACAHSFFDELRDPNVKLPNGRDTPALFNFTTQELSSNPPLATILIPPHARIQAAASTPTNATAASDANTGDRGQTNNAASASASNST
Protocol: as §1

[15] = molecular target: CK1-alpha (Homo sapiens, UniProt P48729); experiment: CK1-alpha kinase assay; format: biochemical; conditions: 10 μM compound; read-out: CK1-alpha percent of inhibition
Chain of CK1-alpha (P48729 whole entry): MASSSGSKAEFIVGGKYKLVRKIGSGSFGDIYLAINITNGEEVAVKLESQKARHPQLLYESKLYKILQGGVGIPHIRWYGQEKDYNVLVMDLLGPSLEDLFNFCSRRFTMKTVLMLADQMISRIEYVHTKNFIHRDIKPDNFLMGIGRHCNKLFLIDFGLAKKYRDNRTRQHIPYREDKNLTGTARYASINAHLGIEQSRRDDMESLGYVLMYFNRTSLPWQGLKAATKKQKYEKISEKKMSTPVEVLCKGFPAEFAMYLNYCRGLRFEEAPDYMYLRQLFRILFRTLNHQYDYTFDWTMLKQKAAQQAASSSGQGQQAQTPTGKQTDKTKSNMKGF
Protocol: as §1

[16] = molecular target: ROCK2 (Homo sapiens, UniProt O75116); experiment: ROCK2 kinase assay; format: biochemical; conditions: 10 μM compound; read-out: ROCK2 percent of inhibition
Protocol: as §1

[17] = molecular target: AKT1/PKBa (Homo sapiens, UniProt P31749); experiment: AKT1/PKBa kinase assay; format: biochemical; conditions: 10 μM compound; read-out: AKT1/PKBa percent of inhibition
Protocol: as §1

[18] = molecular target: EGFR (Homo sapiens, UniProt P00533); experiment: EGFR kinase assay (33P-ATP filter plate); format: biochemical; conditions: 10 μM compound; read-out: EGFR percent of inhibition
Protocol: as §1

[19] = molecular target: Abl (Homo sapiens, UniProt P00519); experiment: Abl kinase assay; format: biochemical; conditions: 10 μM compound; read-out: Abl percent of inhibition
Protocol: as §1

[20] = molecular target: c-Src (Homo sapiens, UniProt P12931); experiment: c-Src kinase assay; format: biochemical; conditions: 10 μM compound; read-out: c-Src percent of inhibition
Chain of c-Src (P12931 whole entry, species assumed): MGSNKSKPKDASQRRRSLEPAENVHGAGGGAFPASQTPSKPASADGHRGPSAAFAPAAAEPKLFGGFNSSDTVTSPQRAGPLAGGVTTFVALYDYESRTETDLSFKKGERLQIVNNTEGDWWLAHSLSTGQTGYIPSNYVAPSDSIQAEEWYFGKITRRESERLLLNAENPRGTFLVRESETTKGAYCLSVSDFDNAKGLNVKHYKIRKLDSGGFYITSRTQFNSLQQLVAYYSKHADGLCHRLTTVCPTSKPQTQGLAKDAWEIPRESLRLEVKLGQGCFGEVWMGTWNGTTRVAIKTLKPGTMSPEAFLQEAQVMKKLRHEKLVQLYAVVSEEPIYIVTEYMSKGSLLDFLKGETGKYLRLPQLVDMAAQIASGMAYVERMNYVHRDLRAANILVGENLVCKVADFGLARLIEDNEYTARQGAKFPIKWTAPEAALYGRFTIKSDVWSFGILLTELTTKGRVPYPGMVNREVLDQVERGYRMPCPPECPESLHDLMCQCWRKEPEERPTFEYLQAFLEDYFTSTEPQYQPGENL
Protocol: as §1

## Nc1ccc(Nc2ncnc3sc4c(c23)CCCC4)cc1 [Compound 8, N-(5,6,7,8-Tetrahydro-benzo[4,5]thieno[2,3-d]pyrimidin-4-yl)-benzene-1,4-diamine]
[1]
  inhibition at 10 µM: 20%
other
  melting point: 203.1 °C
[2]
  inhibition at 10 µM: 7%
[3]
  inhibition at 10 µM: 12%
[4]
  inhibition at 10 µM: 6%
[5]
  inhibition at 10 µM: 2%
[6]
  inhibition at 10 µM: 36%
[7]
  inhibition at 10 µM: 12%
[8]
  inhibition at 10 µM: 6%
[9]
  inhibition at 10 µM: 16%
[10]
  inhibition at 10 µM: -4%
[11]
  inhibition at 10 µM: 20%
[12]
  inhibition at 10 µM: 11%
[13]
  inhibition at 10 µM: 9%
[14]
  inhibition at 10 µM: 8%
[15]
  inhibition at 10 µM: 4%
[16]
  inhibition at 10 µM: -11%
[17]
  inhibition at 10 µM: 4%
[18]
  inhibition at 10 µM: 96%
[19]
  inhibition at 10 µM: 19%
[20]
  inhibition at 10 µM: 16%

## Clc1cccc(Nc2nc(C3CC3)nc3sc4c(c23)CCCC4)c1 [Compound 9, (3-Chloro-phenyl)-(2-cyclopropyl-5,6,7,8-tetrahydro-benzo[4,5]thieno[2,3-d]pyrimidin-4-yl)-amine]
[1]
  inhibition at 10 µM: -6%
other
  melting point: 208.6 °C
[2]
  inhibition at 10 µM: 0%
[3]
  inhibition at 10 µM: 2%
[4]
  inhibition at 10 µM: 2%
[5]
  inhibition at 10 µM: 0%
[6]
  inhibition at 10 µM: 3%
[7]
  inhibition at 10 µM: -10%
[8]
  inhibition at 10 µM: -2%
[9]
  inhibition at 10 µM: -2%
[10]
  inhibition at 10 µM: 7%
[11]
  inhibition at 10 µM: -6%
[12]
  inhibition at 10 µM: -6%
[13]
  inhibition at 10 µM: -14%
[14]
  inhibition at 10 µM: -6%
[15]
  inhibition at 10 µM: -3%
[16]
  inhibition at 10 µM: 5%
[17]
  inhibition at 10 µM: -10%
[18]
  inhibition at 10 µM: 66%
[19]
  inhibition at 10 µM: -20%
[20]
  inhibition at 10 µM: 3%

## Oc1cccc(Nc2nc(C3CC3)nc3sc4c(c23)CCCC4)c1 [Compound 10, 3-(2-Cyclopropyl-5,6,7,8-tetrahydro-benzo[4,5]thieno[2,3-d]pyrimidin-4-ylamino)-Phenol]
[1]
  inhibition at 10 µM: -12%
other
  melting point: 239.7 °C
[2]
  inhibition at 10 µM: 6%
[3]
  inhibition at 10 µM: 9%
[4]
  inhibition at 10 µM: -12%
[5]
  inhibition at 10 µM: 3%
[6]
  inhibition at 10 µM: 2%
[7]
  inhibition at 10 µM: -11%
[8]
  inhibition at 10 µM: -5%
[9]
  inhibition at 10 µM: 10%
[10]
  inhibition at 10 µM: 18%
[11]
  inhibition at 10 µM: -12%
[12]
  inhibition at 10 µM: -3%
[13]
  inhibition at 10 µM: 3%
[14]
  inhibition at 10 µM: -8%
[15]
  inhibition at 10 µM: 4%
[16]
  inhibition at 10 µM: 6%
[17]
  inhibition at 10 µM: 0%
[18]
  inhibition at 10 µM: 23%
[19]
  inhibition at 10 µM: -2%
[20]
  inhibition at 10 µM: 3%

## FC(F)(F)c1cccc(Nc2nc(C3CC3)nc3sc4c(c23)CCCC4)c1 [Compound 11, (2-Cyclopropyl-5,6,7,8-tetrahydro-benzo[4,5]thieno[2,3-d]pyrimidin-4-yl)-(3-trifluoromethyl-phenyl)-amine]
[1]
  inhibition at 10 µM: -1%
other
  melting point: 204.8 °C
[2]
  inhibition at 10 µM: 20%
[3]
  inhibition at 10 µM: 4%
[4]
  inhibition at 10 µM: -14%
[5]
  inhibition at 10 µM: -7%
[6]
  inhibition at 10 µM: -6%
[7]
  inhibition at 10 µM: -5%
[8]
  inhibition at 10 µM: -4%
[9]
  inhibition at 10 µM: 4%
[10]
  inhibition at 10 µM: -5%
[11]
  inhibition at 10 µM: -3%
[12]
  inhibition at 10 µM: 2%
[13]
  inhibition at 10 µM: 3%
[14]
  inhibition at 10 µM: -3%
[15]
  inhibition at 10 µM: -1%
[16]
  inhibition at 10 µM: 6%
[17]
  inhibition at 10 µM: 1%
[18]
  inhibition at 10 µM: 4%
[19]
  inhibition at 10 µM: 0%
[20]
  inhibition at 10 µM: 8%

## Nc1cccc(Nc2nc(C3CC3)nc3sc4c(c23)CCCC4)c1 [Compound 12, N-(2-Cyclopropyl-5,6,7,8-tetrahydro-benzo[4,5]thieno[2,3-d]pyrimidin-4-yl)-benzene-1,3-diamine]
[1]
  inhibition at 10 µM: -8%
other
  melting point: 185.9 °C
[2]
  inhibition at 10 µM: 9%
[3]
  inhibition at 10 µM: 0%
[4]
  inhibition at 10 µM: 0%
[5]
  inhibition at 10 µM: 9%
[6]
  inhibition at 10 µM: 22%
[7]
  inhibition at 10 µM: -8%
[8]
  inhibition at 10 µM: -11%
[9]
  inhibition at 10 µM: 9%
[10]
  inhibition at 10 µM: 21%
[11]
  inhibition at 10 µM: -5%
[12]
  inhibition at 10 µM: -3%
[13]
  inhibition at 10 µM: -6%
[14]
  inhibition at 10 µM: 0%
[15]
  inhibition at 10 µM: -3%
[16]
  inhibition at 10 µM: 5%
[17]
  inhibition at 10 µM: -13%
[18]
  inhibition at 10 µM: 5%
[19]
  inhibition at 10 µM: -13%
[20]
  inhibition at 10 µM: 4%

## O=[N+]([O-])c1cccc(Nc2nc(C3CC3)nc3sc4c(c23)CCCC4)c1 [Compound 13, (2-Cyclopropyl-5,6,7,8-tetrahydro-benzo[4,5]thieno[2,3-d]pyrimidin-4-yl)-(3-nitro-phenyl)-amine]
[1]
  inhibition at 10 µM: -12%
other
  melting point: 211.7 °C
[2]
  inhibition at 10 µM: 9%
[3]
  inhibition at 10 µM: -6%
[4]
  inhibition at 10 µM: -18%
[5]
  inhibition at 10 µM: 12%
[6]
  inhibition at 10 µM: 9%
[7]
  inhibition at 10 µM: -18%
[8]
  inhibition at 10 µM: -14%
[9]
  inhibition at 10 µM: -9%
[10]
  inhibition at 10 µM: 11%
[11]
  inhibition at 10 µM: -9%
[12]
  inhibition at 10 µM: -7%
[13]
  inhibition at 10 µM: -4%
[14]
  inhibition at 10 µM: -6%
[15]
  inhibition at 10 µM: 0%
[16]
  inhibition at 10 µM: 3%
[17]
  inhibition at 10 µM: -2%
[18]
  inhibition at 10 µM: 26%
[19]
  inhibition at 10 µM: -15%
[20]
  inhibition at 10 µM: 1%
